Data: PMC5520057, “Modulation of nongenomic activation of PI3K signalling by tetramerization of N-terminally-cleaved RXRα” (Nature Communications, 2017)
Numbering of substitutions follows the chain as printed. Several values for one entry are separate records, joined by “and”; a condition that tells them apart may be missing. Identical values can stand only once.

How the values were obtained:
[1] = tested on: RXRα-A/B / RXRα-LBD interaction; test: coIP, N/C interaction RXRα-A/B with RXRα-LBD; assay type: cell-based; details: HepG2 cells, coIP with anti-HA antibody; one of two similar experiments
[2] = tested on: p85α-ΔiSH2 / tRXRα interaction; test: p85α-ΔiSH2 interaction with tRXRα; assay type: cell-based
Description: (§1) Cell lysates were then prepared and incubated with bis[sulfosuccinimidyl] suberate (BS3, Pierce) dissolved in dimethyl sulfoxide to a final concentration of 1 mM. The reactions were stopped with protein gel loading buffer. Samples were resolved by SDS/PAGE in 8% acrylamide gels and protein bands were visualized by western blotting.

[3] = tested on: p85α-BCR / tRXRα interaction; test: coIP, p85α-BCR with tRXRα; assay type: cell-based; details: 9-cis-RA (10^−7 M), one of two similar experiments
Description: (§4) For coIP assay[29], HEK293T cells grown in 10 cm dishes were transfected with various plasmids. Cells were lysed in 1 ml of lysis buffer (20 mM Tris (pH 7.5), 150 mM NaCl, 1% Triton X-100, 1 mM EDTA, 30 mM NaF, 2 mM sodium pyrophosphate) with a cocktail of proteinase inhibitors (Roche). Lysates were incubated with the appropriate antibody for 12 h at 4 °C and subsequently incubated with protein A-Sepharose beads for 1 h. The immunoprecipitates were collected and washed three times with lysis buffer. The protein–antibody complexes recovered on beads were subjected to immunoblotting using appropriate antibodies after separation by SDS-PAGE. Input represents 5% of cell lysates used for coIP assays.

[4] = tested on: p85α / tRXRα/F313A interaction; test: coIP, p85α with tRXRα/F313A; assay type: cell-based; details: HEK293T cells; 9-cis-RA (10^−7 M) for 1 h; coIP anti-Myc
Description: as §4

RXRα-LBD/R316E = test: Non-denaturing gel electrophoresis, R316E mutant; assay type: biochemical, human; details: 9-cis-RA (0.5 μM) or K-80003 (20 μM), 3 h at 4 °C
Description: The human RXRα LBD (residues Thr223 to Thr462) cloned as an N-terminal histidine-tagged fusion protein in pET15b expression vector was expressed in Escherichia coli BL21 strain (Stratagene). After sonication, cell extract was incubated with the His60 Ni Superflow resin, and His-tagged RXRα-LBD-resin complexes were washed, eluted and concentrated to 5 mg ml^−1 for subsequent trails. For crystallization experiment, bovine thrombin (Sigma) was used to cleave the His tag from the purified His-tagged RXRα-LBD. The resulting His tag was removed on the Resource-Q column (GE) using 0.1–1 M NaCl gradient and the Tris-Cl pH 8 buffer. RXRα-LDB was further purified using gel filtration on a Superdex 200 2660 column (GE) pre-equilibrated with the 75 mM NaCl, 20 mM Tris-Cl buffer (pH 8).

[5] = tested on: p85α / tRXRα/R316E interaction; test: coIP, p85α with tRXRα/R316E; assay type: cell-based; details: HEK293T cells; TNFα (10 ng ml^−1) or 9-cis-RA (10^−7 M) for 1 h; coIP anti-Myc
Description: as §4

[6] = tested on: RXRα-A/B / RXRα-LBD/W305Q interaction; test: coIP, N/C interaction RXRα-A/B with RXRα-LBD/W305Q; assay type: cell-based; details: HEK293T cells; 9-cis-RA (10^−7 M)
Description: as §4

tRXRα/F313A = test: BS3 crosslinking, tRXRα/F313A; assay type: cell-based; details: MCF-7 cells, 9-cis-RA (10^−7 M) or K-80003 (5 × 10^−6 M) for 6 h
Description: as §1

tRXRα/R316E [7] = test: BS3 crosslinking, tRXRα/R316E; assay type: cell-based; details: MCF-7 cells, 9-cis-RA (10^−7 M) or K-80003 (5 × 10^−6 M) for 6 h
Description: as §1

[8] = tested on: p85α-BCR / RXRα-LBD interaction; test: coIP, p85α-BCR with RXRα-LBD; assay type: cell-based; details: 9-cis-RA (10^−7 M), one of two similar experiments
Description: (§2) For coIP assay, HEK293T cells grown in 10 cm dishes were transfected with various plasmids. Cells were lysed in 1 ml of lysis buffer (20 mM Tris (pH 7.5), 150 mM NaCl, 1% Triton X-100, 1 mM EDTA, 30 mM NaF, 2 mM sodium pyrophosphate) with a cocktail of proteinase inhibitors (Roche). Lysates were incubated with the appropriate antibody for 12 h at 4 °C and subsequently incubated with protein A-Sepharose beads for 1 h. The immunoprecipitates were collected and washed three times with lysis buffer. The protein–antibody complexes recovered on beads were subjected to immunoblotting using appropriate antibodies after separation by SDS-PAGE. Input represents 5% of cell lysates used for coIP assays.

RXRα [9] = tested on: RXRα; design: method as in PMID 10970886, PMID 9811539; details: cited from earlier work
Description: In addition to acting as heterodimeric partners of some nuclear receptors, RXRα can form homodimers[18] that trigger specific signalling pathways. A unique property of RXRα is an auto-repressive mechanism involving homotetramerization, in which a ‘dimer-of-dimers’ pack in a bottom-to-bottom manner, with H12 from each monomer invading (and invaded by) a neighbouring domain across the tetramer interface. This pairwise ‘exchange of arms’ enables each monomer to bind to and occlude the coregulator-binding groove of its neighbour. Some molecules hav ...

RXRα-LBD = test: BS3 crosslinking, transfected RXRα-LBD; assay type: cell-based; details: HepG2 cells; 9-cis-RA (10^−7 M) or K-80003 (5 × 10^−6 M) for 6 h; BS3 1 mM; western blotting
Description: as §1

[10] = tested on: p85α-BCR / RXRα-LBD/W305Q interaction; details: HEK293T cells; with or without 9-cis-RA (10^−7 M)
Description: as §2

Myc-RXRα-LBD (human) = test: cross-linking; cells (HepG2, HEK293T, MCF-7) transfected for 24 h, treated with 9-cis-RA (10^-7 M) and/or K-80003 (5 x 10^-6 M) for 6 h; lysates or fractions incubated with 1 mM BS3, SDS-PAGE and western blotting
p85α / tRXRα interaction = test: coIP, p85α with tRXRα; assay type: cell-based; details: HEK293T cells; TNFα (10 ng ml^−1) for 1 h; coIP anti-Myc
Description: as §4

tRXRα/R316E [11] = test: Subcellular localization of tRXRα/R316E, immunostaining; assay type: cell-based; details: HEK293T cells; TNFα (10 ng ml^−1) for 30 min; confocal microscopy
Description: (§3) Cells mounted on glass slides or tumour tissue frozen sections (5-μm-thick) were washed with PBS and fixed in 4% paraformaldehyde (PFA) for 15 min and permeabilized with PBS containing 0.1% Triton X-100 for 15 min. Fixed cells or tumour tissues were blocked with 5 mg ml^−1 BSA in PBS for 30 min at room temperature, followed with incubation with primary antibodies for 3 h and secondary antibodies at room temperature for 1 h and co-stained with 4′6′-diamidino-2-phenylindole (DAPI) to visualize nuclei. The images were taken under an LSM-510 confocal laser scanning microscope system (Carl Zeiss).

RXRα [12] = test: Subcellular localization of RXRα, immunostaining; assay type: cell-based; details: MCF-7 cells; TNFα (10 ng ml^−1) for 30 min; confocal microscopy
Description: as §3

tRXRα = test: Subcellular localization of tRXRα, immunostaining; assay type: cell-based; details: MCF-7 cells cotransfected with p85α; TNFα (10 ng ml^−1) for 30 min; confocal microscopy
Description: as §3

[13] = target: the molecule itself; test: crystal structure; RXRα-LBD (0.35 mM) cocrystallized with K-80003, 2.6 Å; tetramer (dimer of dimers) with six K-80003 bound
[14] = target: the molecule itself; test: native gel or EMSA; purified RXRα-LBD or mutant (0.2 μg/μl) incubated with DMSO, 9-cis-RA (0.5 μM) and/or K-80003 (20 μM) for 3 h at 4 °C; 8% non-denaturing PAGE, Coomassie staining
[15] = target: the molecule itself; test: cross-linking; cells (HepG2, HEK293T, MCF-7) transfected for 24 h, treated with 9-cis-RA (10^-7 M) and/or K-80003 (5 x 10^-6 M) for 6 h; lysates or fractions incubated with 1 mM BS3, SDS-PAGE and western blotting

Molecule: CC1=C(/C=C/C(C)=C\C=C\C(C)=C\C(=O)O)C(C)(C)CCC1 [9-cis-RA, 9-cis-retinoic acid]
- effect on RXRα-A/B / RXRα-LBD interaction [1]: inhibited by 9-cis-RA in a dose-dependent manner
- tRXRα interaction with p85α-ΔiSH2 with cotransfected RXRα-A/B ([2]; HEK293T cells, 9-cis-RA (10^−7 M) for 6 h, coIP anti-Myc): inhibited 9-cis-RA-induced interaction of tRXRα with p85α-ΔiSH2
- effect on p85α-BCR interaction with tRXRα [3]: enhancing effect of 9-cis-RA on p85α-BCR interaction
- interaction of tRXRα/F313A with p85α [4]: constitutive and 9-cis-RA-independent interaction with p85α
- effect on oligomeric state of RXRα-LBD/R316E (RXRα-LBD/R316E): exhibited mainly as a tetramer independent of the presence of either 9-cis-RA or K-80003
- interaction of tRXRα/R316E with p85α [5]: could not bind to p85α either in the absence or presence of TNFα or 9-cis-RA
- effect on RXRα-A/B / RXRα-LBD/W305Q interaction [6]: could still bind to the RXRα-A/B protein in a 9-cis-RA sensitive manner similar to the wild-type RXRα-LBD
- oligomeric state of tRXRα/F313A (tRXRα/F313A): strong tetrameric species of tRXRα/R316E but not tRXRα/F313A independent of the presence of 9-cis-RA or K-80003
- oligomeric state of tRXRα/R316E (tRXRα/R316E [7]): strong tetrameric species of tRXRα/R316E but not tRXRα/F313A independent of the presence of 9-cis-RA or K-80003
- effect on p85α-BCR interaction with RXRα-LBD [8]: enhancing effect of 9-cis-RA on p85α-BCR interaction
- effect on homotetramers (RXRα [9]): dissociation of homotetramers into homodimers
- crosslinked RXRα-LBD species (RXRα-LBD): only monomer and homodimer
- binding of RXRα-LBD/W305Q with p85α-BCR [10]: impaired the binding of RXRα-LBD with p85α-BCR either in the presence or absence of 9-cis-RA

Molecule: O=C(CCCCCCC(=O)ON1C(=O)CC(S(=O)(=O)O)C1=O)ON1C(=O)CC(S(=O)(=O)O)C1=O (stereo not shown) [BS3, bis[sulfosuccinimidyl] suberate]
- 9-cis-RA-induced tRXRα interaction with p85α-ΔiSH2 ([2]; HepG2 cells, K-80003 and/or 9-cis-RA, then BS3 crosslinking, western blotting): potently inhibited

Molecule: Myc-RXRα-LBD (domain or fragment)
- stoichiometry N (Myc-RXRα-LBD (human)): 2 and 4

Molecule: TNFα
- interaction of tRXRα with full-length p85α (p85α / tRXRα interaction): tRXRα interacted with the full-length p85α in the presence of TNFα
- interaction of tRXRα/R316E with p85α [5]: could not bind to p85α either in the absence or presence of TNFα or 9-cis-RA
- colocalization of tRXRα/R316E with p85α (tRXRα/R316E [11]): lack of colocalization of the tRXRα/R316E mutant with p85α in the absence or presence of TNFα
- effect on nuclear localization of RXRα (RXRα [12]): no effect on the nuclear localization of RXRα
- tRXRα found in the cytoplasm of cells (tRXRα): > 65%

B1: RXRα-LBD (His tag cleaved, for crystallization) (domain or fragment, human, UniProt P19793 223-462, looked up)
chain: TSSANEDMPVERILEAELAVEPKTETYVEANMGLNPSSPNDPVTNICQAADKQLFTLVEWAKRIPHFSELPLDDQVILLRAGWNELLIASFSHRSIAVKDGILLATGLHVHRNSAHSAGVGAIFDRVLTELVSKMRDMQMDKTELGCLRAIVLFNPDSKGLSNPAEVEALREKVYASLEAYCKHKYPEQPGRFAKLLLRLPALRSIGLKCLEHLFFFKLIGDTPIDTFLMEMLEAPHQMT
- stoichiometry N [13]: 4

B2: His-RXRα-LBD/R316E (domain or fragment, human, UniProt P19793 223-462, looked up)
chain: B1 chain with R94E
notes: source: bacteria expressed, purified
- stoichiometry N [14]: 4

B3: His-RXRα-LBD (domain or fragment, human, UniProt P19793 223-462, looked up)
chain: B1 chain
- stoichiometry N [14]: 2 and 4

B4: Myc-tRXRα (domain or fragment, human, UniProt P19793 81-462, looked up)
chain: TTPTLGFSTGSPQLSSPMNPVSSSEDIKPPLGLNGVLKVPAHPSGNMASFTKHICAICGDRSSGKHYGVYSCEGCKGFFKRTVRKDLTYTCRDNKDCLIDKRQRNRCQYCRYQKCLAMGMKREAVQEERQRGKDRNENEVESTSSANEDMPVERILEAELAVEPKTETYVEANMGLNPSSPNDPVTNICQAADKQLFTLVEWAKRIPHFSELPLDDQVILLRAGWNELLIASFSHRSIAVKDGILLATGLHVHRNSAHSAGVGAIFDRVLTELVSKMRDMQMDKTELGCLRAIVLFNPDSKGLSNPAEVEALREKVYASLEAYCKHKYPEQPGRFAKLLLRLPALRSIGLKCLEHLFFFKLIGDTPIDTFLMEMLEAPHQMT
notes: retinoid X receptor alpha lacking the N-terminal 80 amino acids (deletion of 60 plus an additional 20 amino acids); also called truncated RXRα; N-terminally-cleaved RXRα; source: HEK293T, HepG2, transfected, in lysate
- stoichiometry N [15]: 4

B5: Myc-tRXRα/R316E (domain or fragment, human, UniProt P19793 81-462, looked up)
chain: B4 chain with R236E
notes: retinoid X receptor alpha lacking the N-terminal 80 amino acids; source: MCF-7, HEK293T, transfected, in lysate
- stoichiometry N [15]: 4
